Laboratory results reported in patent publication US7632848B1, “Medical treatment of muscles by exposure to anesthetic drugs” (priority 2007, dated 2009).

Legend:
[1] = tested on: extensor digitorum longus muscle; conditions: rat hind limb, sufficient concentration and volume; cited from earlier work
[2] = tested on: eye muscle (lateral rectus muscle); type: in vivo, human
Source text: In one embodiment, an eye muscle is selected for treatment. For an eye that is esotropic (turned inward or crossed), the physician will want to strengthen the lateral rectus muscle, which acts to pull the eye outward into better alignment. The surface of the eye is anesthetized with eye drops. A syringe is filled with up to 5.0 cc of bupivacaine, enough to fill the muscle and reach all the muscle fibers. The concentration of the bupivacaine solution is from 0.5% to 3.0%. The volume and concentration are varied depending on the amount of strengthening effect required. The syringe is attached to an injection needle insulated on its shaft. Therefore, the muscle electrical activity is picked up only with the exposed tip of the needle. The needle is attached to a wire leading to an electromyographic (EMG) recorder. A second wire leads to a ground attached to the skin of the patient's body. The eye is moved to a position at which the lateral rectus muscle to be treated is activated electrically as well as physically contracted. As the tip of the needle approaches the muscle area, the electrical activity is picked up and amplified by the EMG recorder as sound. The sound gets louder as the needle tip gets closer to and finally within the muscle. The needle is advanced behind the eye to the end of the muscle, about 3 cm, keeping the needle within the muscle, guided by the amplitude of the recorded sound. This is important, as the drug will anesthetize the nerves and the muscle with injection of the first few drops, thereafter leaving no guide as to position of the needle. The drug solution is injected starting at this deepest point, with continued injection of solution as the needle is withdrawn. In order to get the maximum effect, all the fibers of the muscle must be exposed to the drug. A smaller volume and concentration are applied when a sub-maximum effect is wanted. […] (Scott, A. B., Alexander, D. E., Miller, J. M., 2007, Bupivacaine injection of eye muscles to treat strabismus. Br J. Opthalmol. 91 (2), 146-148) In one case of eye muscle injection, I marked the solution with a contrast agent to show the exact location of the injected drug. […] All the same, the muscle became larger and stronger. This teaches that exposure of the fibers can also be effected by injecting around the muscle to bathe it. All the muscle fibers must be exposed to the drug to provide the maximal effect. Reducing exposure of the muscle fibers to the drug by reducing the volume of solution injected or by using a lower concentration of drug can be expected to provide a lesser effect. […]

skeletal muscle fibers = conditions: in vivo; cited from earlier work

CCCCN1CCCCC1C(=O)Nc1c(C)cccc1C (stereo not drawn) [bupivacaine]
muscle size after injection [1]: enlargement of the muscle beyond its original size
duration of muscle inactivity from the anesthetic effect ([2]; eye muscle injection, up to 5.0 cc, 0.5% to 3.0%): inactive for a day
eye position and movement after recovery ([2]; eye muscle injection, as the muscle enlarges and strengthens): typically improve
recovery from the myotoxic effect ([2]; in vivo): gradually recovers from the myotoxic effect of the drug over the next week
effect on muscle size and strength ([2]; muscle fibers exposed to adequate concentration and volume of drug): enlarge and become stronger
toxicity to muscle fibers (skeletal muscle fibers): irreversible breakdown of the muscle fibers
